The values that follow come from publication PMC10402201, “CYP5122A1 encodes an essential sterol C4-methyl oxidase in Leishmania donovani and determines the antileishmanial activity of antifungal azoles” (Research Square, 2023).

One test deals with T1, CYP5122A1 (Leishmania donovani, UniProt A0A3S7X0B6).
T1 construct: gene LdCL_270005800; truncated form of XP_003861867.1 without the first 60 amino acids (transmembrane domain), N-terminal solubility tag, C-terminal His-tag
T1 sequence (A0A3S7X0B6 61-592): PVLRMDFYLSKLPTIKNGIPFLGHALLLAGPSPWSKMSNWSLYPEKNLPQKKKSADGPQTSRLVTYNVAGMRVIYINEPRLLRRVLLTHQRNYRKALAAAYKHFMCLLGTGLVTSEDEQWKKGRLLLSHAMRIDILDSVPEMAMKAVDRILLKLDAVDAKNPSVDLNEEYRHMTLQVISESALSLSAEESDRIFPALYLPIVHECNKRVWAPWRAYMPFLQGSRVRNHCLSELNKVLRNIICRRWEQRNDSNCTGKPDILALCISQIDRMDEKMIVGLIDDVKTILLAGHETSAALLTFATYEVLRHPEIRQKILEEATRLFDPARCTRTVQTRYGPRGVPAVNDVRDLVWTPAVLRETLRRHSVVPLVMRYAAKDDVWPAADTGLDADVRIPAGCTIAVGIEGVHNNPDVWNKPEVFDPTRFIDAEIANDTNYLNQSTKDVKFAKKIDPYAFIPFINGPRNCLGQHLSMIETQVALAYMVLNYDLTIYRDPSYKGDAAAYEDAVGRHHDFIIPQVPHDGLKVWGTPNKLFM
Briefly: UV-Vis difference spectra (type II binding), plus BFC inhibition assay.

The target in a further test is T2, CYP51 (Leishmania donovani, UniProt A0A3S7WRS7).
T2 construct: gene LdCL_110017000; truncated form of XP_003859085.1 without the first 31 amino acids (transmembrane domain), N-terminal solubility tag, C-terminal His-tag
T2 sequence (A0A3S7WRS7 32-480): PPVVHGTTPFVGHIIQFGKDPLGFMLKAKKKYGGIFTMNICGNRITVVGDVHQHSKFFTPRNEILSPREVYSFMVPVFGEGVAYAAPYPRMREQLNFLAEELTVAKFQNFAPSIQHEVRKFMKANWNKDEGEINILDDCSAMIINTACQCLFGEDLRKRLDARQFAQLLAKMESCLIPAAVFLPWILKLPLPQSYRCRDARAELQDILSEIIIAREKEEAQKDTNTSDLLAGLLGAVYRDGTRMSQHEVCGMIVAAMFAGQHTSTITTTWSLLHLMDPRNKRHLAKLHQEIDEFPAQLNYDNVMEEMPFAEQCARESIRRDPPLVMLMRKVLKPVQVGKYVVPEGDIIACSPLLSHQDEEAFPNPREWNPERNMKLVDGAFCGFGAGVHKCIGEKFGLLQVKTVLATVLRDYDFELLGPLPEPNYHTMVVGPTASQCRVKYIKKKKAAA
The description is as above.

For `Clc1ccccc1C(c1ccccc1)(c1ccccc1)n1ccnc1` [clotrimazole], the “UV-Vis difference spectra (type II binding), plus BFC inhibition assay” value on CYP5122A1 was “Clotrimazole exhibited type II binding to both CYP51 and CYP5122A1”; on CYP51 it was “Clotrimazole exhibited type II binding to both CYP51 and CYP5122A1”.

With `OC(Cn1cncn1)(Cn1cncn1)c1ccc(F)cc1F` [fluconazole], the “UV-Vis difference spectra (type II binding), plus BFC inhibition assay” value at CYP51 is “Fluconazole and voriconazole elicited type II binding with CYP51 but no specific responses with CYP5122A1”.

Consider `C[C@@H](c1ncncc1F)[C@](O)(Cn1cncn1)c1ccc(F)cc1F` [voriconazole], for which the “UV-Vis difference spectra (type II binding), plus BFC inhibition assay” value on CYP51 was “Fluconazole and voriconazole elicited type II binding with CYP51 but no specific responses with CYP5122A1”.
